Results reported in paper PMC5638539, “A mannitol/sorbitol receptor stimulates dietary intake in Tribolium castaneum” (PLoS ONE, 2017).

Key:
[1] = target: T1, TcGr20 (gustatory receptor 20) (Tribolium castaneum, UniProt D2A5I4); test: two-electrode voltage clamp in Xenopus oocytes expressing TcGr20, dose-response; format: cell-based
T1 construct: ORF of TcGr20 expressed in Xenopus oocytes
T1 sequence (D2A5I4 1-388): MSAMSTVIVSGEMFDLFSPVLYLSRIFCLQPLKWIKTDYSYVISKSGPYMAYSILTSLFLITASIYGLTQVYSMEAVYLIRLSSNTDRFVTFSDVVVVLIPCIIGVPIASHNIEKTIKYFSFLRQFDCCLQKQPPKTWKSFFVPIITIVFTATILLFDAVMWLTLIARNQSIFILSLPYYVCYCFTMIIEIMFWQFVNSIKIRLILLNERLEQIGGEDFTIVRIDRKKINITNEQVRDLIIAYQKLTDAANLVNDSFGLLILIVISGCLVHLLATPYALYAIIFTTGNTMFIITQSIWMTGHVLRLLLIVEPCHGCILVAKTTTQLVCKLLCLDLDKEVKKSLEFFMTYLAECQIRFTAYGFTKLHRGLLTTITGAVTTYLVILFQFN

[2] = target: T1, TcGr20 (gustatory receptor 20); test: two-electrode voltage clamp in Xenopus oocytes expressing TcGr20, dose-response; water-injected control negative; format: cell-based

SMILES	EC50 [1] [mM]	EC50 [2] [mM]
OC[C@@H](O)[C@@H](O)[C@H](O)[C@@H](O)CO [sorbitol]	90.6 ± 10.4	
OC[C@@H](O)[C@@H](O)[C@H](O)[C@H](O)CO [mannitol]		72.6 ± 9.1
